# Laboratory results from patent US12234254B2, “Methods for producing crystalline L-glufosinate ammonium monohydrate” (BASF SE, priority 2019, dated 2025).
# Key:
# [1] = test system: plants; conditions: Ruhland et al. (2002); cited from earlier work
# [2] = Hygroscopicity of solid L-glufosinate forms in contact with ambient air; type: physicochemical; conditions: contact with ambient air in the laboratory; compared with non-crystalline forms
# Excerpt: L-glufosinate produced in a stable solid form is highly desirable for commercial manufacture. Some forms of solid L-glufosinate are hygroscopic, and therefore extra measures must be taken to eliminate contact between these solid L-glufosinate forms and water vapor. […] Several crystalline forms of L-glufosinate are disclosed in WO 2019/018406, and two of these forms (indicated as “Form A” and “Form B”) have now been identified as monohydrate crystals of L-glufosinate ammonium.
# [3] = Particle size measurement (Dv90, volumetric distribution); type: physicochemical
# Excerpt: The size range of crystalline L-glufosinate ammonium monohydrate particles obtained by using the methods provided herein is convenient for use in formulations. In some embodiments, the crystals are mixed with water and other formulation ingredients to form an herbicidal product. In some embodiments, 90% of the crystalline L-glufosinate ammonium particles are less than about 350 microns as determined by volumetric distribution measurement basis (i.e., “Dv90”). For example, the Dv90 of the particles can be less than about 350 microns or less than about 300 microns or less than about 250 microns or less than about 200 microns or less than about 150 microns or less than about 125 microns or less than about 100 microns or less than about 75 microns or less than about 50 microns or less than about 25 microns. […]
# L-glufosinate ammonium starting material (50 g, 77% total L-glufosinate ammonium, 7.3% ammonium glutamate) was added to 35.0 g of 45:55 (w:w) methanol:water. […] The crystals were analyzed by X-ray powder diffraction and the resulting pattern was consistent with that of L-glufosinate ammonium monohydrate Form B, however several peaks consistent with L-glufosinate ammonium monohydrate Form A were present.
# [4] = test system: glutamine synthetase enzyme in plants; conditions: leads to plant death; cited from earlier work
# [5] = DAAO enzyme kinetics assay (HRP/TBHBA/4-AAP dye, Michaelis Menten, Vmax); type: biochemical; conditions: 30° C., 460 nm, measurement at 15 minutes, final DAAO 5 μg/mL, racemic glufosinate substrate, pH 8.0 potassium phosphate buffer
# Protocol: The following dye stock solutions were prepared: a 20 mg/mL stock solution of 2,4,6-tribromo-3-hydroxybenzoic acid (TBHBA) in DMSO; and a 100 mg/mL stock solution of 4-aminoantipyrine (4-AAP) in water. The following enzyme stock solution was prepared: a 1 mg/mL stock solution of horseradish peroxide (HRP) type 6 in a pH 8.0 potassium phosphate buffer. The following substrate stock solution was prepared: varying concentrations of racemic glufosinate in a pH 8.0 potassium phosphate buffer such that the initial reaction concentrations of racemic glufosinate were 0, 1, 10, 100, 250, and 500 nM. DAAO enzymes were made in E. coli which were lysed and the cell free extracts freeze dried. Enzyme amounts in the cell free extracts were quantified using SDS-PAGE and staining by Coomassie Blue.
# Mix A is a combination of the substrate and HRP enzyme. Solutions were prepared for each substrate concentration to be assayed using reaction buffer. The solutions were two times the final substrate concentration and 0.2 mg/mL for the HRP solution.
# Mix B is a dye mixture. To 5 mL of reaction buffer was added 120 μL of TBHBA solution and 400 μL of 4-AAP solution.
# Mix C is an enzyme mixture. A 0.02 mg/mL solution of DAAO in reaction buffer was prepared. […]
# The enzyme kinetics were measured as described above, plotted on a Michaelis Menten graph, and used to calculate Vmax.
molecule,measurement,setting,value
CP(=O)(O)CC[C@@H](N)C(=O)O [D-glufosinate],herbicidal activity,[1],essentially no herbicidal activity
"CP(=O)(O)CC[C@H](N)C(=O)O.N.O [Form A, L-glufosinate ammonium monohydrate]",hygroscopicity,[2],low hygroscopicity
CP(=O)(O)CC[C@H](N)C(=O)O.N.O [L-glufosinate ammonium monohydrate],Dv90 particle size,"[3]; Example 9, crystallized with 0.4 M ammonium hydroxide",70.7 microns
same,Dv90 particle size,"[3]; Example 10, crystallized without ammonium hydroxide",102 microns
CP(=O)(O)CC[C@H](N)C(=O)O [L-glufosinate],inhibition of glutamine synthetase enzyme,[4],inhibits
"CP(=O)(O)CC[C@H](N)C(=O)O [amorphous L-glufosinate solids, L-glufosinate]",hygroscopicity,[2],particularly hygroscopic
"CP(=O)(O)CC[C@H](N)C(=O)O [crystalline L-glufosinate P free acid, L-glufosinate P free acid]",hygroscopicity,[2],significantly lower
"Mut846: variant DAAO enzyme, sequence provided in SEQ ID NO: 2 (protein, Rhodosporidium toruloides) MASPSNKQIVVLGAGVIGLTTAVKIQEQRGYQVTIIAEILPSDPKSIRYTSHWAGAHHVSLAGEDKLQARVDQETFGVMWEMSAPGGEAEGCFLRQKQVEYYCDKQADPHPLEHMPDFRRLDENSLIPNTVAGIGFTTLTIDTPIYLNYLLSRFLARGGAIVRGSVQHISQVVDGGARVFTGSKSAGVPVDAVIVCAGIGARFLGGVEDKDVYPIRGQTVLLRAPWIRFGRTMSSKDGLYTYIIPRRSGDVIVGGIKVPNDWYPTPRPETTQDILKRGLALCPELAPQSIRDQREPTVDDLRPLVIEEGCGLRPGRKGGIRLEVEWYAKTDGQAPKVPIVHNYGHGGAGFQASWGSASVALELLEKALAQARLAM",Vmax,[5],5.54 µmol/min/mg
